From paper PMC8624133, “10th Trends in Medical Mycology Held on 8 to 11 October 2021, Aberdeen, Scotland, Organized by the European Confederation of Medical Mycology (ECMM)” (Journal of Fungi, 2021)
Values after ≈ are worked out from the molar mass of the structure shown.

Experiments:
[1] = tested on: Candida albicans and C. glabrata; type: cell-based, Candida spp.; details: 20 women with RVVC
[2] = tested on: C. parapsilosis; assay: ARIA surveillance, CLSI M27 broth microdilution; type: cell-based, Candida parapsilosis
[3] = tested on: C. parapsilosis SC isolates; assay: Candidemia survey Greece, susceptibility per hospital protocol; type: cell-based, Candida parapsilosis species complex
[4] = tested on: C. tropicalis; type: cell-based, Candida tropicalis; details: all successive strains
[5] = tested on: C. auris; assay: ARIA surveillance, CLSI M27 broth microdilution; type: cell-based, Candida auris; details: CDC tentative breakpoints
[6] = tested on: clinical dermatophyte isolates; assay: Inhibition of dermatophyte biofilm formation; type: cell-based
Experimental: Materials and Methods: The study population consisted of 50 dermatophyte isolates that were collected from 2019 to 2020 from patients referred to the two mycology laboratory of Shiraz, Iran. The isolates were identified by ITS gene region sequencing. The suspension (equivalent to 0.5 McFarland) of the isolates was used to evaluate the ability of the isolates to form biofilms and also the effect of itraconazole, terbinafine and griseofulvin at concentrations of 2–32 μg/mL on inhibiting biofilm formation. Two optical microscope and a scanning electron microscope were used to study the microscopic structure of biofilms formed on the surface of 96-well plate wells.

[7] = tested on: eumycetoma; details: in vivo; cited from earlier work
Text: Mycetoma: Mycetoma is a chronic, progressive, implantation inflammatory disease characterised by severe and stigmatising deformities, disability, and high morbidity. The disease is caused by fungi (eumycetoma) and several Actinomycetales members (actinomycetoma). Its estimative global burden is 9000 cases. There are no robust epidemiological studies on mycetoma in SA, but it is tconsidered the third most prevalent endemic IM in SA, especially among low socioeconomic adult males living in rural areas from Argentina, Brazil, Colombia and Venezuela, where the principal agents are Madurella spp. a ...

[8] = tested on: Trichophyton spp.; assay: Agar-based screening method; type: cell-based; details: 0.5 McF, 5 days, 30 °C
Experimental: Inter-experimental variation was evaluated by testing 10 isolates on three different days. Single-centre validation: After determining the optimal conditions for the agar screening method, 112 molecularly identified Trichophyton spp. clinical isolates were tested.

[9] = tested on: Candida sp. and other yeast isolates, planktonic; assay: MIC of catheter yeast isolates, planktonic form; type: cell-based; details: read-out: Minimum Inhibitory Concentrations (MIC)
[10] = tested on: Cryptococcus bacillisporus (AFLP5/VGIII); assay: Treatment of a grey parrot with cryptococcosis; type: in vivo, grey parrot (Psittacus erithacus); details: in drinking water, 600 mg per litre, after 6 months
Text: Phenotypic and molecular analysis of the isolated yeast allowed the identification of Cryptococcus bacillisporus (AFLP5/VGIII) as the cause of the infection.

[11] = tested on: Asp. flavus; assay: Triazole resistance agar screening, four-well plate; details: RPMI agar, 1 µg/mL, 29 isolates
Experimental: All the isolates were identified phenotypically. […] Fungal spores were suspended in normal saline (0.85%) and adjusted to 0.5 McFarland and 50 μL was plated in each well. […] Plates were incubated at 35–37 °C for 72 h in ambient air. The presence or absence of growth was observed visually at 24 h, 48 h, and 72 h.

[12] = Voriconazole level monitoring with flucloxacillin co-administration; type: in vivo, human
Text: Methods: Synoptic description of a significant interaction in 2 critically ill patients and analysis of interaction screening in validated data bases.

[13] = tested on: S. apiospermum (SA) biofilms; assay: Mature biofilm damage, XTT metabolic reduction assay; details: Scedosporium apiospermum, 24 h, read-out: BF MIC50

For `OC(Cn1cncn1)(Cn1cncn1)c1ccc(F)cc1F` [fluconazole], which “in vitro resistant pathogens” value [1] is on record?
Its value is 45%.

What about the susceptibility ([2]; Italy) of the same compound?
The susceptibility was 52.4%.

What about the susceptibility ([2]; Turkey) of the same compound?
Its susceptibility is 76.2%.

What about the overall susceptibility ([2]; all countries) of the same compound?
The overall susceptibility was 88.5%.

What about the susceptibility ([2]; all countries except Italy and Turkey) of the same compound?
Its susceptibility is 100%.

What about the Resistance [3] of the same compound?
The Resistance was 20%.

And the susceptibility category [4]?
Its susceptibility category is “susceptible”.

What about the susceptible [5] of the same compound?
Its susceptible is 56.3%.

With `CCC(C)n1ncn(-c2ccc(N3CCN(c4ccc(OCC5COC(Cn6cncn6)(c6ccc(Cl)cc6Cl)O5)cc4)CC3)cc2)c1=O` (stereo not shown) [itraconazole] as the compound, how does the IC50 ([6]; inhibition of biofilm formation, read-out: mean concentrations of IC50) read?
The IC50 was 3.78 µg/mL (≈ 5.36 µM).

What about the “samples with IC50 in concentration <2” value ([6]; tested at 2–32 μg/mL) of the same compound?
Its value is 70%.

And the Cure rate [7]?
Its Cure rate is 25–35%.

And the “optimal agar concentration preventing growth of WT isolates” value [8]?
The value was 1 mg/L.

For `C[C@@H]1[C@H](O)[C@@H](C)/C=C/C=C/C=C/C=C/C=C/C=C/C=C/[C@H](O[C@@H]2O[C@H](C)[C@@H](O)[C@H](N)[C@@H]2O)C[C@@H]2O[C@](O)(C[C@@H](O)C[C@@H](O)[C@H](O)CC[C@@H](O)C[C@@H](O)CC(=O)O[C@H]1C)C[C@H](O)[C@H]2C(=O)O` [amphotericin B], which MIC [9] is on record?
The MIC was 30 to 1000 µg/mL.

What about the clinical response [10] of the same compound?
Its clinical response is “good response”.

With `C[C@@H](c1ncncc1F)[C@](O)(Cn1cncn1)c1ccc(F)cc1F` [voriconazole] as the compound, how does the “isolates with growth only in voriconazole well, n (%)” value ([11]; 48 h) read?
The value was 1 (3.44%).

What about the “isolates with growth only in voriconazole well, n (%)” value ([11]; 72 h) of the same compound?
The value was 11 (37.93%).

What about the voriconazole level ([12]; Case 1, 2 days after flucloxacillin interruption, 8 mg/kg bid) of the same compound?
The voriconazole level was less than 0.2 µg/mL.

And the voriconazole level ([12]; Case 1, day 10 of combination with high dose flucloxacillin, 4 mg/kg bid)?
Its voriconazole level is less than 0.2 µg/mL.

What about the voriconazole level ([12]; Case 1, subsequently after 3 days) of the same compound?
The voriconazole level was 3 µg/mL.

And the voriconazole level ([12]; Case 2, after flucloxacillin stop and dose increase to 6 mg/kg bid)?
Its voriconazole level is 4.2 µg/mL.

What about the voriconazole level ([12]; Case 2, before flucloxacillin) of the same compound?
Its voriconazole level is 3.5 µg/mL.

And the voriconazole level ([12]; Case 2, during high dose flucloxacillin, two levels)?
Its voriconazole level is less than 0.5 µg/mL.

What about the voriconazole level ([12]; Case 2, further increase, toxic level) of the same compound?
Its voriconazole level is 15.1 µg/mL.

What about the voriconazole level ([12]; Case 2, intravenous maintenance 4 mg/kg bid) of the same compound?
Its voriconazole level is 3.2 µg/mL.

What about the MIC50 [13] of the same compound?
The MIC50 was 32 µg/mL (≈ 91.6 µM).
